Measured values taken from patent US10072017B2, “Compounds and methods for the treatment of cystic fibrosis” (Flatley Discovery Lab, LLC, priority 2015, dated 2018).

Biological target: T1, CFTR (Homo sapiens, UniProt P13569, DEL508-508)
T1 construct: Primary CF airway epithelial cells were obtained from the UNC Cystic Fibrosis Tissue Procurement and Cell Culture Core; host or cells: primary CF airway epithelial cells
Assay: Equivalent current assay in Primary CF airway epithelial cells (NAUC)
Assay type: cell-based
Settings: 24 h, normalized to VX809 (3 μM) positive control; for Nauc @ 3 μM: 3 μM test compound; for Nauc @ 10 μM: 10 μM test compound
Procedure, shortened: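 NAUC is the area under the curve from forskolin (10 μM) plus VX770 (1 μM) addition to CFTR-172 (20 μM) block, after benzamil (5 μM). It is corrected for vehicle and scaled to 3 μM VX809 as 1.0 and DMSO as 0.0. Cells were exposed for 24 h to compounds with VX809; medians of ≥4 replicates were fitted sigmoidally.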

T1 sequence (P13569 with tags, fused parts or gaps DEL508-508): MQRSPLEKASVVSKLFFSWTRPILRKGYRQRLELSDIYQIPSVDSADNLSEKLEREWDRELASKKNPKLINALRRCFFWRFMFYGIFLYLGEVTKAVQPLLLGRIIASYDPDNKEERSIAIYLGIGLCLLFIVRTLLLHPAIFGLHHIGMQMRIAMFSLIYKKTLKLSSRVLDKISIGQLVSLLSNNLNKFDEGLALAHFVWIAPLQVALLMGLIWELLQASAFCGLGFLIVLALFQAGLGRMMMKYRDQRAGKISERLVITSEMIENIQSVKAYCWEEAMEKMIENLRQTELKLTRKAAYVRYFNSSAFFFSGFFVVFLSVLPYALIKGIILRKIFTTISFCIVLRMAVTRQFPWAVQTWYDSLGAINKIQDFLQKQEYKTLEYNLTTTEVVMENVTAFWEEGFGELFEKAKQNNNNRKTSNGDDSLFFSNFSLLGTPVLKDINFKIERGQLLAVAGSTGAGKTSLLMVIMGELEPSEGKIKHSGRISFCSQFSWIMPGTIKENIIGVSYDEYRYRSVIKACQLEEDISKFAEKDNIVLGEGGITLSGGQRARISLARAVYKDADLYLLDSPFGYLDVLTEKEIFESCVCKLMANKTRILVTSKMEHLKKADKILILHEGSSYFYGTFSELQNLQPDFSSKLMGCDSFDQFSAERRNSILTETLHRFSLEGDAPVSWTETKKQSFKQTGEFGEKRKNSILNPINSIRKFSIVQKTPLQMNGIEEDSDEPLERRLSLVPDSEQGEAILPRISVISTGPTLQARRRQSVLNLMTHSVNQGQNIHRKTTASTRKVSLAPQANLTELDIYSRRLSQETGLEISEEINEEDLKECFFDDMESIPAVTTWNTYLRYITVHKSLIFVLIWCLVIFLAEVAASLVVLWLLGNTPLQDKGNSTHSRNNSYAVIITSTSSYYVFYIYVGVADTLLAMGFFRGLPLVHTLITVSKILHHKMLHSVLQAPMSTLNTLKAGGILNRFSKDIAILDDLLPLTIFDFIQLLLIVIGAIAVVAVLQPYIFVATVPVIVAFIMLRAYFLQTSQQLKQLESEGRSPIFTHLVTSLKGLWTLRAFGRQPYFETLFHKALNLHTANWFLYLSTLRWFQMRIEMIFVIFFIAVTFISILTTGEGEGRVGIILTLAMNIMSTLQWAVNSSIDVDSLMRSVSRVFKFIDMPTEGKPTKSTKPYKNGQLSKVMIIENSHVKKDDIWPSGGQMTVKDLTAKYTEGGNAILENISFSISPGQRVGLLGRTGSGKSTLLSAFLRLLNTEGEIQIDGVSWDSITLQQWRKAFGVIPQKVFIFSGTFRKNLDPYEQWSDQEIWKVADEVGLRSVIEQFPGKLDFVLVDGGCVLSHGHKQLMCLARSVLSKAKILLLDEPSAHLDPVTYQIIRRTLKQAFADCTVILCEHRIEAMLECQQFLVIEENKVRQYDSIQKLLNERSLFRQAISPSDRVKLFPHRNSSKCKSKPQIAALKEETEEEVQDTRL

**Q.** Which results are given for `CC1(C)CC2C3C(=O)N(c4cc(Cl)c(OC(F)F)c(Cl)c4)C(=O)C3C3(C(=O)Nc4c(Cl)cc(Cl)cc43)N2C1` (stereo not shown) [Example 225]?
**A.** Nauc @ 3 μM: +++ (NAUC “+++” refers to an observed NAUC >170% of positive control); Nauc @ 10 μM: +++ (NAUC “+++” refers to an observed NAUC >170% of positive control)

**Q.** Which results are given for `O=C1C2C3C[C@H](Cl)CN3C3(C(=O)Nc4c(Cl)cc(Cl)cc43)C2C(=O)N1c1cc(Cl)cc(Cl)c1` (single isomer, unassigned) [Example 88]?
**A.** Nauc @ 3 μM: + (NAUC “+” refers to an observed NAUC <140% of positive control); Nauc @ 10 μM: +++ (NAUC “+++” refers to an observed NAUC >170% of positive control)

**Q.** `N#Cc1cccc(N2C(=O)C3C4CCCN4C4(C(=O)Nc5c(Cl)cc(Cl)cc54)C3C2=O)c1` (stereo not shown) [Example 14] was tested. Which “Nauc @ 3 μM” value did it give?
**A.** + (NAUC “+” refers to an observed NAUC <140% of positive control)

**Q.** And the “Nauc @ 10 μM” value?
**A.** ++ (NAUC “++” refers to an observed NAUC 170-140% of positive control)

**Q.** Which “Nauc @ 3 μM” value does the source give for `O=C1C2C(Cc3ccccc3Cl)NC3(C(=O)Nc4c(Cl)cc(Cl)cc43)C2C(=O)N1c1cc(Cl)cc(Cl)c1` (stereo not shown) [Example 246] here?
**A.** +++ (NAUC “+++” refers to an observed NAUC >170% of positive control)

**Q.** And the “Nauc @ 10 μM” value?
**A.** +++ (NAUC “+++” refers to an observed NAUC >170% of positive control)

**Q.** Which results are given for `N#Cc1ccc(CC2NC3(C(=O)Nc4c(Cl)cc(Cl)cc43)C3C(=O)N(c4cc(Cl)cc(Cl)c4)C(=O)C23)cc1` (stereo not shown) [Example 189]?
**A.** Nauc @ 3 μM: + (NAUC “+” refers to an observed NAUC <140% of positive control); Nauc @ 10 μM: +++ (NAUC “+++” refers to an observed NAUC >170% of positive control)

**Q.** How did the “Nauc @ 3 μM” value turn out when `C[C@]1(O)CC2C3C(=O)N(c4cc(Cl)cc(Cl)n4)C(=O)C3C3(C(=O)Nc4c(Cl)cc(Cl)cc43)N2C1` (stereo partly shown) [Example 172] was run?
**A.** ++ (NAUC “++” refers to an observed NAUC 170-140% of positive control)

**Q.** And the “Nauc @ 10 μM” value?
**A.** +++ (NAUC “+++” refers to an observed NAUC >170% of positive control)

**Q.** Which results are given for `O=C1C2C3C[C@H](O)CN3C3(C(=O)Nc4c(Cl)cc(Cl)cc43)C2C(=O)N1c1cc(Br)cc(Br)c1` (single isomer, unassigned) [Example 56]?
**A.** Nauc @ 3 μM: ++ (NAUC “++” refers to an observed NAUC 170-140% of positive control); Nauc @ 10 μM: +++ (NAUC “+++” refers to an observed NAUC >170% of positive control)

**Q.** Which “Nauc @ 3 μM” value does the source give for `O=C1C2C(Cc3ccccc3F)NC3(C(=O)Nc4c(Cl)cc(Cl)cc43)C2C(=O)N1c1cc(Cl)cc(Cl)c1` (stereo not shown) [Example 181] here?
**A.** +++ (NAUC “+++” refers to an observed NAUC >170% of positive control)

**Q.** And the “Nauc @ 10 μM” value?
**A.** +++ (NAUC “+++” refers to an observed NAUC >170% of positive control)

**Q.** Which results are given for `O=C1C2C3CCCN3C3(C(=O)Nc4c(Cl)cc(Cl)cc43)C2C(=O)N1c1cc(Cl)cc(Cl)n1` (single isomer, unassigned) [Example 67]?
**A.** Nauc @ 3 μM: +++ (NAUC “+++” refers to an observed NAUC >170% of positive control); Nauc @ 10 μM: +++ (NAUC “+++” refers to an observed NAUC >170% of positive control)

**Q.** `O=C1C2C3CCCN3C3(C(=O)Nc4ccc(C(F)(F)F)cc43)C2C(=O)N1c1cc(Cl)cc(Cl)c1` (stereo not shown) [Example 30] was tested. Which “Nauc @ 3 μM” value did it give?
**A.** ++ (NAUC “++” refers to an observed NAUC 170-140% of positive control)

**Q.** And the “Nauc @ 10 μM” value?
**A.** +++ (NAUC “+++” refers to an observed NAUC >170% of positive control)

**Q.** With `O=C1C2C3C[C@H](O)CN3C3(C(=O)Nc4c(Cl)cc(Cl)cc43)C2C(=O)N1c1cc(Cl)c(OC(F)F)c(Cl)c1` (stereo partly shown) [Example 244] as the compound, how does the “Nauc @ 3 μM” value read?
**A.** ++ (NAUC “++” refers to an observed NAUC 170-140% of positive control)

**Q.** And the “Nauc @ 10 μM” value?
**A.** ++ (NAUC “++” refers to an observed NAUC 170-140% of positive control)

**Q.** What does the source list for `Cc1ccc(N2C(=O)C3C4CCCN4C4(C(=O)Nc5c(C)cccc54)C3C2=O)c(Cl)c1` (stereo not shown) [Example 128]?
**A.** Nauc @ 3 μM: ++ (NAUC “++” refers to an observed NAUC 170-140% of positive control); Nauc @ 10 μM: + (NAUC “+” refers to an observed NAUC <140% of positive control)

**Q.** What does the source list for `CC(=O)Oc1c(Cl)cc(Cl)cc1N1C(=O)C2C3CCCN3C3(C(=O)Nc4c(Cl)cc(Cl)cc43)C2C1=O` (stereo not shown) [Example 90]?
**A.** Nauc @ 3 μM: + (NAUC “+” refers to an observed NAUC <140% of positive control); Nauc @ 10 μM: +++ (NAUC “+++” refers to an observed NAUC >170% of positive control)

**Q.** Which “Nauc @ 3 μM” value does the source give for `O=C1C2C3CCCN3C3(C(=O)Nc4c(Cl)cc(F)cc43)C2C(=O)N1c1cc(F)cc(Cl)c1` (stereo not shown) [Example 36] here?
**A.** + (NAUC “+” refers to an observed NAUC <140% of positive control)

**Q.** And the “Nauc @ 10 μM” value?
**A.** +++ (NAUC “+++” refers to an observed NAUC >170% of positive control)

**Q.** What does the source list for `O=C1C2C3CC4(CC4)CN3C3(C(=O)Nc4c(Cl)cc(Cl)cc43)C2C(=O)N1c1cc(Cl)cc(Cl)n1` (stereo not shown) [Example 184]?
**A.** Nauc @ 3 μM: +++ (NAUC “+++” refers to an observed NAUC >170% of positive control); Nauc @ 10 μM: +++ (NAUC “+++” refers to an observed NAUC >170% of positive control)

**Q.** What does the source list for `O=C1C2CN(c3ccccc3)C3(C(=O)Nc4c(Cl)cc(Cl)cc43)C2C(=O)N1c1cc(Cl)cc(Cl)c1` (stereo not shown) [Example 209]?
**A.** Nauc @ 3 μM: + (NAUC “+” refers to an observed NAUC <140% of positive control); Nauc @ 10 μM: +++ (NAUC “+++” refers to an observed NAUC >170% of positive control)

**Q.** Which “Nauc @ 3 μM” value does the source give for `[2H]C12C(=O)N(c3cc(Cl)cc(Cl)c3)C(=O)C1([2H])C1(C(=O)Nc3c(Cl)cc(Cl)cc31)N1C[C@@H](O)CC12` (stereo partly shown) [Example 64] here?
**A.** + (NAUC “+” refers to an observed NAUC <140% of positive control)

**Q.** And the “Nauc @ 10 μM” value?
**A.** ++ (NAUC “++” refers to an observed NAUC 170-140% of positive control)

**Q.** How did the “Nauc @ 3 μM” value turn out when `O=C1C2C3CC(C(F)F)CN3C3(C(=O)Nc4c(Cl)cc(Cl)cc43)C2C(=O)N1c1cc(F)cc(Cl)c1` (stereo not shown) [Example 133] was run?
**A.** ++ (NAUC “++” refers to an observed NAUC 170-140% of positive control)

**Q.** And the “Nauc @ 10 μM” value?
**A.** ++ (NAUC “++” refers to an observed NAUC 170-140% of positive control)

**Q.** For `Cc1cccc2c1NC(=O)C21C2C(=O)N(c3cc(Cl)cc(Cl)c3)C(=O)C2C2CCCN21` (stereo not shown) [Example 12], which “Nauc @ 3 μM” value is on record?
**A.** + (NAUC “+” refers to an observed NAUC <140% of positive control)

**Q.** And the “Nauc @ 10 μM” value?
**A.** ++ (NAUC “++” refers to an observed NAUC 170-140% of positive control)

**Q.** Which results are given for `O=C1C2C3CC(=C(F)F)CN3C3(C(=O)Nc4c(Cl)cc(Cl)cc43)C2C(=O)N1c1cccc(C(F)(F)F)c1` (stereo not shown) [Example 126]?
**A.** Nauc @ 3 μM: +++ (NAUC “+++” refers to an observed NAUC >170% of positive control); Nauc @ 10 μM: +++ (NAUC “+++” refers to an observed NAUC >170% of positive control)

**Q.** How did the “Nauc @ 3 μM” value turn out when `O=C1C2C3CCCN3C3(C(=O)Nc4c(Cl)cc(Cl)cc43)C2C(=O)N1c1cc(Cl)nc(Cl)c1` (stereo not shown) [Example 33] was run?
**A.** ++ (NAUC “++” refers to an observed NAUC 170-140% of positive control)

**Q.** And the “Nauc @ 10 μM” value?
**A.** +++ (NAUC “+++” refers to an observed NAUC >170% of positive control)

**Q.** `CC1(C)CC2C3C(=O)N(c4cc(Cl)cc(Cl)c4)C(=O)C3C3(C(=O)Nc4c(Cl)cc(Cl)cc43)N2C1` (single isomer, unassigned) [Example 119] was tested. Which “Nauc @ 3 μM” value did it give?
**A.** +++ (NAUC “+++” refers to an observed NAUC >170% of positive control)

**Q.** What about the “Nauc @ 10 μM” value of the same compound?
**A.** +++ (NAUC “+++” refers to an observed NAUC >170% of positive control)

**Q.** What does the source list for `O=C1C2C(Cc3cccc(O)c3)NC3(C(=O)Nc4c(Cl)cc(Cl)cc43)C2C(=O)N1c1cc(Cl)cc(Cl)c1` (stereo not shown) [Example 202]?
**A.** Nauc @ 3 μM: + (NAUC “+” refers to an observed NAUC <140% of positive control); Nauc @ 10 μM: ++ (NAUC “++” refers to an observed NAUC 170-140% of positive control)

**Q.** What does the source list for `COc1c(Cl)cc(N2C(=O)C3C4CC(OC)(OC)CN4C4(C(=O)Nc5c(Cl)cc(Cl)cc54)C3C2=O)cc1Cl` (stereo not shown) [Example 168]?
**A.** Nauc @ 3 μM: + (NAUC “+” refers to an observed NAUC <140% of positive control); Nauc @ 10 μM: ++ (NAUC “++” refers to an observed NAUC 170-140% of positive control)

**Q.** How did the “Nauc @ 3 μM” value turn out when `COc1c(Cl)cc(N2C(=O)C3C4C[C@H](F)CN4C4(C(=O)Nc5c(Cl)cc(Cl)cc54)C3C2=O)cc1Cl` (single isomer, unassigned) [Example 118] was run?
**A.** ++ (NAUC “++” refers to an observed NAUC 170-140% of positive control)

**Q.** And the “Nauc @ 10 μM” value?
**A.** ++ (NAUC “++” refers to an observed NAUC 170-140% of positive control)

**Q.** Which results are given for `O=C1C2C3C[C@H](O)CN3C3(C(=O)Nc4c(Cl)cc(Cl)cc43)C2C(=O)N1c1cc(Br)cc(Br)c1` (stereo partly shown) [Example 45]?
**A.** Nauc @ 3 μM: + (NAUC “+” refers to an observed NAUC <140% of positive control); Nauc @ 10 μM: +++ (NAUC “+++” refers to an observed NAUC >170% of positive control)

**Q.** `O=C1C2C3CC4(CC4)CN3C3(C(=O)Nc4c(Cl)cc(Cl)cc43)C2C(=O)N1c1cc(Cl)cc(Cl)n1` (single isomer, unassigned) [Example 219] was tested. Which “Nauc @ 3 μM” value did it give?
**A.** ++ (NAUC “++” refers to an observed NAUC 170-140% of positive control)

**Q.** What about the “Nauc @ 10 μM” value of the same compound?
**A.** + (NAUC “+” refers to an observed NAUC <140% of positive control)

**Q.** `O=C1C2C(Cc3ccccc3Cl)NC3(C(=O)Nc4c(Cl)cc(Cl)cc43)C2C(=O)N1c1cc(Cl)cc(Cl)c1` (stereo not shown) [Example 190] was tested. Which “Nauc @ 3 μM” value did it give?
**A.** +++ (NAUC “+++” refers to an observed NAUC >170% of positive control)

**Q.** What about the “Nauc @ 10 μM” value of the same compound?
**A.** +++ (NAUC “+++” refers to an observed NAUC >170% of positive control)

**Q.** With `O=C1C2C3C[C@H](O)CN3C3(C(=O)Nc4c(Cl)cc(Cl)cc43)C2C(=O)N1c1cc(Cl)c(O)c(Cl)c1` (stereo partly shown) [Example 82] as the compound, how does the “Nauc @ 3 μM” value read?
**A.** + (NAUC “+” refers to an observed NAUC <140% of positive control)

**Q.** And the “Nauc @ 10 μM” value?
**A.** ++ (NAUC “++” refers to an observed NAUC 170-140% of positive control)
